Reference: patent EP1433789A1, “Pyrrolopyrazines and their use as selective apoptosis inducers” (Aponetics AG, priority 2002, dated 2004)

Columns and labels:
A20 [1] = test: Hoechst 33342 nuclear staining (Table 3); type: cell-based, mouse; design: key: 0 relating to no activity; 1 relating to weak activity comprising less than 50% of the cells; score 2 relating to strong activity comprising more than 50% of the cells
Summary of the method: (§1)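 Adherent cells (3-5×10^3, pre-spread 24 h) or suspension cells (8-10×10^3) treated with compounds at 10, 3, 1 and 0.3 µM for 24 or 48 h, then Hoechst 33342 stained for 30 min. Apoptotic nuclear morphology scored by fluorescence microscopy: 0 none, 1 weak (<50% cells), 2 strong (>50% cells).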

HBL 100 = test: Hoechst 33342 nuclear staining (Table 3); type: cell-based, human; design: key: 0 relating to no activity; 1 relating to weak activity comprising less than 50% of the cells; score 2 relating to strong activity comprising more than 50% of the cells
Summary of the method: as §1

HT 1080 = test: Hoechst 33342 nuclear staining (Table 3); type: cell-based, human; design: key: 0 relating to no activity; 1 relating to weak activity comprising less than 50% of the cells; score 2 relating to strong activity comprising more than 50% of the cells
Summary of the method: as §1

Ramos [2] = test: Hoechst 33342 nuclear staining (Table 3); type: cell-based, human; design: key: 0 relating to no activity; 1 relating to weak activity comprising less than 50% of the cells; score 2 relating to strong activity comprising more than 50% of the cells
Summary of the method: as §1

Ramos [3] = test: AnnexinV/7-AAD staining; type: cell-based, human; settings: 10 µM, 24 h treatment
Summary of the method: (§2)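 Cells treated with compound at 10 µM final for 24 h, then stained with AnnexinV-GST/anti-GST Alexa 488 and 7-AAD and analysed by flow cytometry. Percent positive cells scored as 0 (<10%), 1 (10–50%) or 2 (>50%).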

A20 [4] = test: AnnexinV/7-AAD staining; type: cell-based, mouse; settings: A20, 10 µM, 24 h treatment
Summary of the method: as §2

HeLa = test: BrdU incorporation (proliferation); type: cell-based, human; design: key: 0 for no activity; 1 for a moderate inhibition; 2 for strong inhibition of proliferation; settings: 48 h
Procedure: (§3) Adherent cells are seeded out at 2 - 4*10^4 cells/well/ml in 24 well tissue culture plates 24 h prior to treatment. Suspension cells are seeded out at 2*10^5 cells/ml/well in 24 well plates. Compounds are added leading to final concentrations of 3 µM and 10 µM, respectively. Subsequently, BrdU (Molecular Probes #B-23151) at 10 µM final concentration is added and the plates are incubated for 48 h. After the incubation cells are processed according to standard procedures. The detection of the incorporated BrdU is done with the anti-bromodeoxyuridine Mab PRB-1, Alexa Fluor 660 conjugate (Molecular Probes #A-21306). The analysis is performed on a FACSCalibur™ by monitoring the fluorescence activity on FL3. The readout reflects DNA synthesis which is a hallmark for proliferation. The scores are defined the following: 0 for no activity, 1 for a moderate inhibition and 2 for strong inhibition of proliferation. Table 7 indicates inhibitory activities of several tested compounds on proliferation.

Jurkat = test: BrdU incorporation (proliferation); type: cell-based, human; design: key: 0 for no activity; 1 for a moderate inhibition; 2 for strong inhibition of proliferation; settings: 48 h
Procedure: as §3

COc1cc2c(cc1OC)-c1c(Br)c3nc4ccccc4nc3n1C(C)C2 (stereo not shown) [compound 10]
Hoechst 33342 nuclear staining (A20 [1]; A20, 24h, conc 0.3 (µM)): 0 | Hoechst 33342 nuclear staining (A20 [1]; A20, 24h, conc 1 (µM)): 0 | Hoechst 33342 nuclear staining (A20 [1]; A20, 24h, conc 3 (µM)): 0 | Hoechst 33342 nuclear staining (A20 [1]; A20, 24h, conc 10 (µM)): 2 (score 2 relating to strong activity comprising more than 50% of the cells) | Hoechst 33342 nuclear staining (A20 [1]; A20, 48h, conc 0.3 (µM)): 0 | Hoechst 33342 nuclear staining (A20 [1]; A20, 48h, conc 1 (µM)): 0 | Hoechst 33342 nuclear staining (A20 [1]; A20, 48h, conc 3 (µM)): 2 (score 2 relating to strong activity comprising more than 50% of the cells) | Hoechst 33342 nuclear staining (fraction of apoptotic nuclei), score (HBL 100; HBL 100, 24h, 0.3 µM): 1 (1 relating to weak activity comprising less than 50% of the cells) | Hoechst 33342 nuclear staining (fraction of apoptotic nuclei), score (HBL 100; HBL 100, 24h, 1 µM): 2 (score 2 relating to strong activity comprising more than 50% of the cells) | Hoechst 33342 nuclear staining (fraction of apoptotic nuclei), score (HBL 100; HBL 100, 24h, 3 µM): 2 (score 2 relating to strong activity comprising more than 50% of the cells) | Hoechst 33342 nuclear staining (fraction of apoptotic nuclei), score (HBL 100; HBL 100, 24h, 10 µM): 2 (score 2 relating to strong activity comprising more than 50% of the cells) | Hoechst 33342 nuclear staining (fraction of apoptotic nuclei), score (HBL 100; HBL 100, 48h, 0.3 µM): 2 (score 2 relating to strong activity comprising more than 50% of the cells) | Hoechst 33342 nuclear staining (fraction of apoptotic nuclei), score (HBL 100; HBL 100, 48h, 1 µM): 2 (score 2 relating to strong activity comprising more than 50% of the cells) | Hoechst 33342 nuclear staining (fraction of apoptotic nuclei), score (HBL 100; HBL 100, 48h, 3 µM): 2 (score 2 relating to strong activity comprising more than 50% of the cells) | Hoechst 33342 nuclear staining (fraction of apoptotic nuclei), score (HBL 100; HBL 100, 48h, 10 µM): 2 (score 2 relating to strong activity comprising more than 50% of the cells) | Hoechst 33342 nuclear staining (fraction of apoptotic nuclei), score (HT 1080; HT 1080, 24h, 0.3 µM): 0 | Hoechst 33342 nuclear staining (fraction of apoptotic nuclei), score (HT 1080; HT 1080, 24h, 1 µM): 1 (1 relating to weak activity comprising less than 50% of the cells) | Hoechst 33342 nuclear staining (fraction of apoptotic nuclei), score (HT 1080; HT 1080, 24h, 3 µM): 2 (score 2 relating to strong activity comprising more than 50% of the cells) | Hoechst 33342 nuclear staining (fraction of apoptotic nuclei), score (HT 1080; HT 1080, 24h, 10 µM): 2 (score 2 relating to strong activity comprising more than 50% of the cells) | Hoechst 33342 nuclear staining (fraction of apoptotic nuclei), score (HT 1080; HT 1080, 48h, 0.3 µM): 0 | Hoechst 33342 nuclear staining (fraction of apoptotic nuclei), score (HT 1080; HT 1080, 48h, 1 µM): 2 (score 2 relating to strong activity comprising more than 50% of the cells) | Hoechst 33342 nuclear staining (fraction of apoptotic nuclei), score (HT 1080; HT 1080, 48h, 3 µM): 2 (score 2 relating to strong activity comprising more than 50% of the cells) | Hoechst 33342 nuclear staining (fraction of apoptotic nuclei), score (HT 1080; HT 1080, 48h, 10 µM): 2 (score 2 relating to strong activity comprising more than 50% of the cells) | Hoechst 33342 nuclear staining (Ramos [2]; 24h, conc 0.3 (µM)): 0 | Hoechst 33342 nuclear staining (Ramos [2]; 24h, conc 1 (µM)): 0 | Hoechst 33342 nuclear staining (Ramos [2]; 24h, conc 3 (µM)): 0 | Hoechst 33342 nuclear staining (Ramos [2]; 24h, conc 10 (µM)): 2 (score 2 relating to strong activity comprising more than 50% of the cells) | Hoechst 33342 nuclear staining (Ramos [2]; 48h, conc 0.3 (µM)): 0 | Hoechst 33342 nuclear staining (Ramos [2]; 48h, conc 1 (µM)): 2 (score 2 relating to strong activity comprising more than 50% of the cells) | Hoechst 33342 nuclear staining (Ramos [2]; 48h, conc 3 (µM)): 2 (score 2 relating to strong activity comprising more than 50% of the cells) | Hoechst 33342 nuclear staining (Ramos [2]; 48h, conc 10 (µM)): 2 (score 2 relating to strong activity comprising more than 50% of the cells) | percentage of positively stained cells (AnnexinV/7-AAD staining) (Ramos [3]): 2 (score 2 relates to more than 50% positivity) | percentage of positively stained cells (AnnexinV/7-AAD staining) (A20 [4]): 1 (score 1 relates to more than 10% but less than 50%) | BrdU incorporation (inhibition of proliferation) (HeLa; 3uM): 0 | BrdU incorporation (inhibition of proliferation) (HeLa; 10uM): 0 | BrdU incorporation (inhibition of proliferation) (Jurkat; 3uM): 2 | BrdU incorporation (inhibition of proliferation) (Jurkat; 10uM): 1
